Experimental data reported in US20010012854A1, “MULTICATALYTIC PROTEASE INHIBITORS FOR USE AS ANTI-TUMOR AGENTS” (priority 1997, published 2001).

What was measured:
[1] = tested on: Lewis lung (murine) lung carcinoma; experiment: Calcein-AM viability assay, Lewis Lung; format: cell-based; conditions: Mus musculus
Description: (§1) Cells were initially seeded in 96-well plates at varying density, then assayed using the Calcein-AM viability assay after 24 hours to determine the optimal final density for each cell type. Cells were then seeded in 96-well plates at this density in 100 μL of the proper cell media as follows:
(§2) Serial dilutions of the compounds were made so that concentrations were twice the desired concentration to be evaluated. When 100 μL of the dilution was then added to the cells plated in 100 μL of media, a final concentration of 0, 11.7, 46.9, 187.5, 375 and 750 nM was obtained. Compounds were added to the plates three to four hours after seeding the cells, then the plates were incubated at 37° C. for the desired time point (generally one, two, or three day incubations).
(§3) Calcein-AM viability assays were conducted at the desired time points as follows. Media were aspirated using a manifold and metal plate to leave approximately 50 μL/well. The wells were then washed three times with 200 μL DPBS (Gibco), aspirating each time with the manifold to leave 50 μL/well. A 8 μM solution of Calcein-AM (Molecular Probes) in DPBS was prepared and 150 μL was added to each well. The plates were then incubated at 37° C. for 30 minutes. […] After the final aspiration, fluorescence was measured using a Cytofluor 2300 fluorescence plate reader. […]

[2] = tested on: AT-2 (rat) prostatic carcinoma; experiment: Calcein-AM viability assay, AT-2; format: cell-based
Description: as §1, §2, §3

[3] = tested on: Lewis Lung carcinoma xenografts; experiment: In vivo growth of Lewis Lung carcinoma xenografts in athymic nude mice; set-up: species or system murine; conditions: 3 mg/kg, s.c., QD, 5 days a week, 12 days
Description: Female athymic nude mice were injected s.c. with 1×10^6 Lewis Lung carcinoma cells into the right rear flank. Upon tumors achieving 150 to 200 mm^3 in volume, mice were randomized into groups of ten animals each and dosing commenced with Compound I (2 mg/kg, s.c., QD, 5 days a week), Compound J (3 mg/kg, s.c., QD, 5 days a week), or vehicle alone (30% Solutol) for a total of 12 days. Tumor measurements (volume) were determined with vernier calipers in two dimensions every two to three days. Statistical analyses of drug-associated anti-tumor efficacy relative to vehicle-treated controls were conducted using the Mann-Whitney Rank sum test.

[4] = tested on: DU145 prostatic carcinoma; experiment: Calcein-AM viability assay, DU-145; format: cell-based; conditions: Homo sapiens
Description: as §1, §2, §3

[5] = tested on: OVCAR-3 ovarian carcinoma; experiment: Calcein-AM viability assay, OVCAR-3; format: cell-based; conditions: Homo sapiens
Description: as §1, §2, §3

[6] = tested on: PANC-1 pancreatic carcinoma; experiment: Calcein-AM viability assay, PANC-1; format: cell-based; conditions: Homo sapiens
Description: as §1, §2, §3

SKMEL-5 melanoma = experiment: Calcein-AM viability assay, SKMEL-5; format: cell-based; conditions: Homo sapiens, SK-MEL-5
Description: as §1, §2, §3

MCF-7 breast carcinoma = experiment: Calcein-AM viability assay, MCF-7; format: cell-based; conditions: Homo sapiens, MCF7
Description: as §1, §2, §3

[7] = tested on: murine melanoma cell line, B16-F0; experiment: In vivo B16-F0 melanoma tumor growth in C57BL mice; conditions: 10 mg/kg/day, ip
Description: a. Materials: MCP inhibitors used for in vivo studies (Compounds D and E) were each formulated in 25% Solutol.
b. Cell line: The murine melanoma cell line, B16-F0, was grown at 37° C. in a humidified incubator, with a 95% air/5% CO2 atmosphere, in Dulbecco's modified Eagle's medium with 4.5 g/l glucose (Cellgro/Mediatech, Washington, D.C.) containing 10% fetal bovine serum (Hyclone Labs, Logan, Utah), 2 mM glutamine (GibcoBRL, Long Island, N.Y.), penicillin (100 I.U./mL) (GibcoBRL), and streptomycin (100 μg/mL) (GibcoBRL). The cells were determined to be free of mycoplasma and rodent viruses (MAP testing). Exponentially growing cells were harvested using 5 mL of warm trypsin/EDTA (0.05%, 0.5 mM)((GibcoBRL). The total volume was brought up to 10 mL with Complete Medium to neutralize trypsin and cells were counted with a hemocytometer. The cells were then collected by brief centrifugation and the cell pellet was resuspended in Phosphate Buffered Saline (GibcoBRL) to achieve the final concentration of 1×10^7 live cells/ml.
c. Animals: Female C57BL mice (20-25 g) obtained from Harlan Sprague Dawley, Indianapolis, Ind. were maintained five mice/cage and given a commercial diet and water ad libitum. […]
e. Tumor measurements: Tumors were measured using a vernier caliper every 2 to 3 days. Tumor volume was calculated using the formula: […]

[8] = target: MCP chymotrypsin-like activity (Homo sapiens, UniProt P28074); experiment: Inhibition of MCP chymotrypsin-like activity; format: biochemical
Excerpt: (§4) The rank-order potency for Jurkat cell killing precisely matched the order for MCP inhibition (Table 2, below).
Inhibition of the chymotrypsin-like activity of MCP by the disclosed MCP inhibitors has been reported, but these MCP inhibitors produced relatively little inhibition on the MCP trypsin-like activity and cathepsin B, a vacuolar cysteine protease (Iqbal, M., et al. J. Med Chem. 38: 2276-2277, 1995; Iqbal, M., et al. Bioorg. Med. Chem. Lett. 6: 287-290, 1996; and Harding, C. V., et al. J. Immuno. 155: 1767-1775, 1995). Furthermore, the order of potency for inhibition of the chymotrypsin-like activity was reported to be Compound A>Compound B>Compound C by using both isolated MCP and intact murine B cells (Iqbal, M., et al. J. Med Chem. 38: 2276-2277, 1995; Iqbal, M., et al. Bioorg. Med. Chem. Lett. 6: 287-290, 1996; and Harding, C. V., et al. J. Immuno. 155: 1767-1775, 1995).

[9] = tested on: Jurkat Human T Cell Leukemia Line; experiment: Jurkat cell viability assay (XTT reduction); format: cell-based; conditions: Jurkat cells, 24 hours, viability by XTT reduction, read-out: Toxicity (IC50)
Description: f. Cell viability assay. Jurkat cells were treated with MCP inhibitors or vehicle for 30 min. at 37° C. Next, ionomycin (1 μM) and the phorbol ester PMA (10 ng/ml) were added, together with 0.2% ethanol. After 24 h, cell viability was assessed by reduction of XTT (Sigma, X4251). To each well, 50 μl of XTT (1 mg/ml) and 25 μl PMS (Sigma 9625, 5 mM) were added. After 3 h at 37° C., the OD of each well was read at 450 nm/690 nm by a plate reader.
as §4

**Q.** `CC(C)C[C@@H](NC(=O)[C@H](CCCN/C(N)=N/[N+](=O)[O-])NC(=O)C(CCCCCCCCN1C(=O)c2ccccc2C1=O)C1CCCC1)B1O[C@H]2CC3CC(C3(C)C)C2(C)O1` (stereo partly drawn) [Compound J] was tested. Which IC50 ([1]; 24 h) did it give?
**A.** The IC50 was 411 nM.

**Q.** What about the IC50 ([1]; 72 h) of the same compound?
**A.** Its IC50 is 505 nM.

**Q.** And the IC50 ([2]; AT-2, 24 h)?
**A.** The IC50 was greater than 1000 nM.

**Q.** And the IC50 ([2]; AT-2, 72 h)?
**A.** Its IC50 is greater than 1000 nM.

**Q.** What about the “Lung carcinoma tumor growth (tumor volume)” value [3] of the same compound?
**A.** Its value is “inhibit lung carcinoma tumor growth”.

**Q.** And the IC50 ([4]; DU-145, 24 h)?
**A.** The IC50 was 385 nM.

**Q.** And the IC50 ([4]; DU-145, 72 h)?
**A.** Its IC50 is 167 nM.

**Q.** What about the IC50 ([5]; OVCAR-3, 24 h) of the same compound?
**A.** Its IC50 is greater than 1000 nM.

**Q.** And the IC50 ([5]; OVCAR-3, 72 h)?
**A.** The IC50 was 29 nM.

**Q.** And the IC50 ([6]; PANC-1, 24 h)?
**A.** The IC50 was greater than 1000 nM.

**Q.** What about the IC50 ([6]; PANC-1, 72 h) of the same compound?
**A.** The IC50 was 185 nM.

**Q.** What about the IC50 (SKMEL-5 melanoma; SKMEL-5, 24 h) of the same compound?
**A.** The IC50 was 427 nM.

**Q.** What about the IC50 (SKMEL-5 melanoma; SKMEL-5, 72 h) of the same compound?
**A.** Its IC50 is 82 nM.

**Q.** And the IC50 (MCF-7 breast carcinoma; MCF-7, 24 h)?
**A.** Its IC50 is greater than 1000 nM.

**Q.** And the IC50 (MCF-7 breast carcinoma; MCF-7, 72 h)?
**A.** Its IC50 is 289 nM.

**Q.** For `CC(C)C[C@H](NC(=O)[C@H](CCCNC(N)=N[N+](=O)[O-])NC(=O)C(CCCCCCCCC#N)C1CCCC1)B(O)O` (stereo partly drawn) [D], which “Melanoma tumor growth (tumor volume)” value [7] is on record?
**A.** The value was “inhibit melanoma tumor growth”.

**Q.** And the IC50 [8]?
**A.** Its IC50 is 5 nM.

**Q.** What about the IC50 [9] of the same compound?
**A.** Its IC50 is 600 nM.
